The source of these data is patent US8835458B2 (Hanmi Science Co., Ltd, priority 2010, dated 2014).

For data set [1], the system named is MDA-MB-231 breast cancer cell lines. Put plainly: Evaluation of inhibition on cell growth (MTS). It is filed as cell-based. To be noted: Homo sapiens, MDA-MB-231, 120 hours. Here is the method: (§1) MDA-MB-231 breast cancer cell lines (ATCC #HTB-26) and BxPC-3 pancreas cancer cell lines (ATCC #CRL 1687), which have been reported to express XIAP, were obtained from ATCC (American type culture collection; Rockville, Md.). MDA-MB-231 cell lines were incubated in L-15 medium supplemented with 10% FBS and 1% penicillin/streptomycin (Gibco BRL) at a T-75 cm^2 growth flask. In addition, BxPC-3 cell lines were incubated in RPMI medium supplemented with 10% FBS and 1% penicillin/streptomycin. For experiments of toxicity to normal cells, fibroblasts Hs27 (ATCC #CRL 1634) and Balb/c3t3 (ATCC #CCL 163) were used. The various cell lines were transferred into 96-well plates at a density of 3,000˜5,000 cells/100 μL, and cultured for 24 hours under conditions of 37° C., 5% CO2, 95% air, and 100% relative humidity (MDA-MB-231 cells were cultured under atmospheric conditions). The cells were treated with 10 μM˜0.1 nM of test compounds, and MDA-MB-231, BxPC-3, and normal cell lines were cultured for 120, 96, and 72 hours, respectively.
(§2) Cell viabilities of MDA-MB-231 cell lines were measured at an absorbance of 490 nm using CellTiter 96™ AQueous One Solution Cell proliferation Assay (MTS, Promega), and cell viabilities of BxPC-3 and normal cell lines were measured by fixing cells with 10% TCA (trichloroacetic acid), staining with SRB (sulforhodamine B), and measuring at 540 nm. From the values, GI50 values in which test compounds reduce the growth of cancer cells by 50% were calculated. The growth rates of cancer cells were calculated from following Equation 1 or 2. [(Ti−Tz)/(C−Tz)]×100 (for Ti>=Tz) [Equation 1] [(Ti−Tz)/Tz]×100 (for Ti<Tz) [Equation 2] In Equations 1 and 2, Tz refers to a density of untreated cells, which is an absorbance in 0% cell growth groups. C refers to a density of cells cultured by adding only medium, and Ti refers to a density of cells treated with test compounds.
(§3) GI50 value is the concentration of a test compound when the value of Equation 1 is 50, which indicates the concentration of test compound required to inhibit the cancer cells by 50%. On each measurement, test compounds were compared with a control.
(§4) The activity value of each compound (GI50 value) was shown in Table 5, and an IAP antagonist was used as a control.
(§5) In the activity measurement on MDA-MB-231 breast cancer cell lines, the values were represented as “***” for 100 nM or less, “**” for over 100 nM to below 1,000 nM, and “*” for 1,000 nM or more. In the measurement on normal cell lines, Balb/C and Hs27, the values were represented as “+++” for 10,000 nM or more, “++” for over 5,000 nM to below 10,000 nM, and “+” for 5,000 nM or less.

A short description of data set [2]: Toxicity to normal cells (SRB). In kind it is cell-based, human. To be noted: human, Hs27 fibroblasts (normal cell line). Here is the method:
as §1, §2, §3, §4, §5

Counter-ions that a name gives are not always drawn.

`CN[C@@H](C)C(=O)N[C@H](C(=O)N1CCC[C@H]1C(=O)Nc1cc2c(Nc3ccc4c(c3)CC(=O)N4)ncnc2cc1OC)C(C)(C)C` [Example 94, (S)-1-((S)-3,3-dimethyl-2-((S)-2-(methylamino)propanamide)butanoyl)-N-(7-methoxy-4-((2-oxoindolin-5-yl)amino)quinazolin-6-yl)pyrrolidine-2-carboxamide hydrochloride]: the GI50 in data set [1] was in the range of 100 to 1000 nM. Also, the 50% growth inhibitory concentration (GI50) at 72 h in data set [2] was more than 10000 nM.

Compound `CN[C@@H](C)C(=O)N[C@H](C(=O)N1CCC[C@H]1C(=O)Nc1cc2c(Nc3ccc(N4CCOCC4)c(Cl)c3)ncnc2cc1OC)C(C)(C)C` [Example 95, (S)—N-(4-((3-chloro-4-morpholinophenyl)amino)-7-methoxyquinazolin-6-yl)-1-((S)-3,3-dimethyl-2-((S)-2-(methylamino)propanamido)butanoyl)pyrrolidine-2-carboxamide] yielded a GI50 in data set [1] not above 100 nM. In addition, in data set [2], the GI50 at 72 h was more than 10000 nM.

Take `CN[C@@H](C)C(=O)N[C@H](C(=O)N1CCC[C@H]1C(=O)Nc1cc2c(Nc3ccc(N4CCCCC4)c(Cl)c3)ncnc2cc1OC)C(C)(C)C` [Example 96, (S)—N-(4-((3-chloro-4-(piperidin-1-yl)phenyl)amino)-7-methoxyquinazolin-6-yl)-1-((S)-3,3-dimethyl-2-((S)-2-(methylamino)propanamido)butanoyl)pyrrolidine-2-carboxamide hydrochloride]: in data set [1], the GI50 is not above 100 nM. For the same compound, the 50% growth inhibitory concentration (GI50) at 72 h in data set [2] was more than 10000 nM.

In turn, `CN[C@@H](C)C(=O)N[C@H](C(=O)N1CCC[C@H]1C(=O)Nc1cc2c(Nc3ccc(N4CCN(C(C)C)CC4)c(Cl)c3)ncnc2cc1OC)C(C)(C)C` [Example 97, (S)—N-(4-((3-chloro-4-(4-isopropylpiperazin-1-yl)phenyl)amino)-7-methoxyquinazolin-6-yl)-1-((S)-3,3-dimethyl-2-((S)-2-(methylamino)propanamido)butanoyl)pyrrolidine-2-carboxamide hydrochloride] gave a 50% growth inhibitory concentration (GI50) in data set [1] not above 100 nM. This compound also had a GI50 at 72 h in data set [2] of more than 10000 nM.

In turn, `CCCN1CCN(c2ccc(Nc3ncnc4cc(OC)c(NC(=O)[C@@H]5CCCN5C(=O)[C@@H](NC(=O)[C@H](C)NC)C(C)(C)C)cc34)cc2Cl)CC1` [Example 98, (S)—N-(4-((3-chloro-4-(4-propyl-1-yl)phenyl)amino)-7-methoxyquinazolin-6-yl)-1-((S)-3,3-dimethyl-2-((S)-2-(methylamino)propanamido)butanoyl)pyrrolidine-2-carboxamide hydrochloride] displayed a GI50 in data set [1] not above 100 nM. Further, in data set [2], the GI50 at 72 h was more than 10000 nM.

`CCN(CC)c1ccc(Nc2ncnc3cc(OC)c(NC(=O)[C@@H]4CCCN4C(=O)[C@@H](NC(=O)[C@H](C)NC)C(C)(C)C)cc23)cc1Cl` [Example 99, (S)—N-(4-((3-chloro-4-(diethylamino)phenyl)amino)-7-methoxyquinazolin-6-yl)-1-((S)-3,3-dimethyl-2-((S)-2-(methylamino)propanamido)butanoyl)pyrrolidine-2-carboxamide hydrochloride]: the concentration for 50% growth inhibition (GI50) in data set [1] is not above 100 nM. In addition, in data set [2], the 50% growth inhibitory concentration (GI50) at 72 h is more than 10000 nM.

In the case of `CN[C@@H](C)C(=O)N[C@H](C(=O)N1CCC[C@H]1C(=O)Nc1cc2c(Nc3ccc(N4CCN(CC5CC5)CC4)c(F)c3)ncnc2cc1OC)C(C)(C)C` [Example 100, hydrochloride], the 50% growth inhibitory concentration (GI50) in data set [1] was not above 100 nM. The GI50 at 72 h in data set [2] was more than 10000 nM.

Compound `CN[C@@H](C)C(=O)N[C@H](C(=O)N1CCC[C@H]1C(=O)Nc1cc2c(Nc3cc(Cl)c(OCc4ccccn4)c(Cl)c3)ncnc2cc1OC)C(C)(C)C` [Example 101, (S)—N-(4-((3,5-dichloro-4-(pyridin-2-ylmethoxy)phenyl)amino)-7-methoxyquinazolin-6-yl)-1-((S)-3,3-dimethyl-2-((S)-2-(methylamino)propanamido)butanoyl)pyrrolidine-2-carboxamide hydrochloride] gave a GI50 in data set [1] not above 100 nM. In data set [2], this compound displayed a GI50 at 72 h of more than 10000 nM.

For `CN[C@@H](C)C(=O)N[C@H](C(=O)N1CCC[C@H]1C(=O)Nc1cc2c(Nc3ccc(OCc4ccccn4)c(Cl)c3)ncnc2cc1OC)C(C)(C)C` [Example 102, (S)—N-(4-((3-chloro-4-(pyridin-2-ylmethoxy)phenyl)amino)-7-methoxyquinazolin-6-yl)-1-((S)-3,3-dimethyl-2-((S)-2-(methylamino)propanamido)butanoyl)pyrrolidine-2-carboxamide hydrochloride], the concentration for 50% growth inhibition (GI50) in data set [1] is not above 100 nM. Besides, the GI50 at 72 h in data set [2] was more than 10000 nM.

Consider `CN[C@@H](C)C(=O)N[C@H](C(=O)N1CCC[C@H]1C(=O)Nc1cc2c(Nc3ccc(N4CCC(N5CCCCC5)CC4)cc3)ncnc2cc1OC)C(C)(C)C` [Example 103, (S)—N-(4-((4-([1,4′-bipiperidine]-1′-yl)phenyl)amino)-7-methoxyquinazolin-6-yl)-1-((S)-3,3-dimethyl-2-((S)-2-(methylamino)propanamido)butanoyl)pyrrolidine-2-carboxamide hydrochloride], for which the GI50 in data set [1] is not above 100 nM. For the same compound, the GI50 at 72 h in data set [2] was more than 10000 nM.

In data set [1], `CN[C@@H](C)C(=O)N[C@H](C(=O)N1CCC[C@H]1C(=O)Nc1cc2c(Nc3ccc(CN4CCCCC4)cc3)ncnc2cc1OC)C(C)(C)C` [Example 104, (S)-1-((S)-3,3-dimethyl-2-((S)-2-(methylamino)propanamido)butanoyl)-N-(7-methoxy-4-((4-(piperidin-1-ylmethyl)phenyl)amino)quinazolin-6-yl)pyrrolidine-2-carboxamide hydrochloride] gave a GI50 not above 100 nM. The compound also gave a 50% growth inhibitory concentration (GI50) at 72 h in data set [2] of more than 10000 nM.

In data set [1], `CN[C@@H](C)C(=O)N[C@H](C(=O)N1CCC[C@H]1C(=O)Nc1cc2c(Nc3ccc(N4CCC(N5CCN(C)CC5)CC4)cc3)ncnc2cc1OC)C(C)(C)C` [Example 105, (S)-1-((S)-3,3-dimethyl-2-((S)-2-(methylamino)propanamido)butanoyl)-N-(7-methoxy-4-((4-(4-(4-methylpiperazin-1-yl)piperidin-1-yl)phenyl)amino)quinazolin-6-yl)pyrrolidine-2-carboxamide hydrochloride] yielded a GI50 not above 100 nM. Also, in data set [2], the GI50 at 72 h was more than 10000 nM.

As for `CN[C@@H](C)C(=O)N[C@H](C(=O)N1CCC[C@H]1C(=O)Nc1cc2c(Nc3ccc(C4CCN(C)CC4)cc3)ncnc2cc1OC)C(C)(C)C` [Example 106, (S)-1-((S)-3,3-dimethyl-2-((S)-2-(methylamino)propanamido)butanoyl)-N-(7-methoxy-4-((4-(1-methylpiperidin-4-yl)phenyl)amino)quinazolin-6-yl)pyrrolidine-2-carboxamide hydrochloride], the GI50 in data set [1] is not above 100 nM. Moreover, the GI50 at 72 h in data set [2] is more than 10000 nM.

With `CN[C@@H](C)C(=O)N[C@H](C(=O)N1CCC[C@H]1C(=O)Nc1cc2c(NC3CCC(N4CCC(C)CC4)CC3)ncnc2cc1OC)C(C)(C)C` (stereo partly drawn) [Example 107, (S)-1-((S)-3,3-dimethyl-2-((S)-2-(methylamino)propanamido)butanoyl)-N-(7-methoxy-4-((4-(4-methylpiperidin-1-yl)cyclohexyl)amino)quinazolin-6-yl)pyrrolidine-2-carboxamide hydrochloride], in data set [1], the GI50 was 100 to 1000 nM. In data set [2], this compound returned a 50% growth inhibitory concentration (GI50) at 72 h of more than 10000 nM.

As to `CN[C@@H](C)C(=O)N[C@H](C(=O)N1CCC[C@H]1C(=O)Nc1cc2c(Nc3ccc(S(=O)(=O)N4CCN(C)CC4)cc3)ncnc2cc1OC)C(C)(C)C` [Example 108, (S)-1-((S)-3,3-dimethyl-2-((S)-2-(methylamino)propanamido)butanoyl)-N-(7-methoxy-4-((4-((4-methylpiperazin-1-yl)sulfonyl)phenyl)amino)quinazolin-6-yl)pyrrolidine-2-carboxamide hydrochloride], the GI50 in data set [1] was not above 100 nM. The same compound displayed a GI50 at 72 h in data set [2] of more than 10000 nM.

In data set [1], `CN[C@@H](C)C(=O)N[C@H](C(=O)N1CCC[C@H]1C(=O)Nc1cc2c(Nc3ccc(C4CCCN(C)C4)cc3)ncnc2cc1OC)C(C)(C)C` (stereo partly drawn) [Example 109, (2S)-1-((S)-3,3-dimethyl-2-((S)-2-(methylamino)propanamido)butanoyl)-N-(7-methoxy-4-((4-(1-methylpiperidin-3-yl)phenyl)amino)quinazolin-6-yl)pyrrolidine-2-carboxamide hydrochloride] registered a GI50 not above 100 nM. This compound displayed a GI50 at 72 h in data set [2] of more than 10000 nM.
